“And” between values parts separate entries of the source, which are not always exact repeats. Identical values can stand only once. Like-named read-outs stand apart in the source and are kept apart here. Bounds are passed on as bounds.

We go through three compounds from publication PMC3931744, “Discovery of Selective Inhibitors of the Clostridium difficile Dehydroquinate Dehydratase” (PLoS ONE, 2014).

In one assay the target is T1, vcDHQD (type II DHQD) (Vibrio cholerae, UniProt Q9KV60).
T1 sequence (Q9KV60 1-150): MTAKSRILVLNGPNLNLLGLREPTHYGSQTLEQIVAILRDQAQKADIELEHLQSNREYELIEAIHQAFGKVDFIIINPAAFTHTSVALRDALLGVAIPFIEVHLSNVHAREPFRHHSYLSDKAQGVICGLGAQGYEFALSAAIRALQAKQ
Nature of the assay: vcDHQD inhibition, DHQD panel. Format: biochemical.

In another assay the target is ypDHQD (type II DHQD) (Yersinia pestis, UniProt Q8ZAX1). Nature of the assay: biochemical.
In assay [1] the target is T2, cdDHQD (Clostridioides difficile, UniProt Q186A6). Description: biochemical. Details: species or system Clostridium difficile.
Assay [2] deals with T3, seDHQD (Salmonella typhimurium, UniProt P58687). Nature of the assay: NMR line broadening with seDHQD. The note with it: similar compound concentrations; 10 µM DHQD, 100 µM compound. Format: binding, Salmonella enterica. The text has this: Supplementary Figure S2. NMR data for binding of compounds 1 and 2 to cdDHQD. (A) Line broadening observed for compound 1 upon addition of cdDHQD or seDHQD. (B) Line broadening observed for compound 2 upon addition of cdDHQD or seDHQD. […] Line widths were estimated using NMRDraw (Delaglio et al., 1995).

Assay [3] addresses T2, cdDHQD. The note with it: 10 µM DHQD, 100 µM compound.
Assay [4] addresses T2, cdDHQD. Nature of the assay: biochemical.
Another assay deals with T4, btDHQD (type II DHQD) (Bacteroides thetaiotaomicron, UniProt Q8A3W2).
T4 sequence (Q8A3W2 1-140): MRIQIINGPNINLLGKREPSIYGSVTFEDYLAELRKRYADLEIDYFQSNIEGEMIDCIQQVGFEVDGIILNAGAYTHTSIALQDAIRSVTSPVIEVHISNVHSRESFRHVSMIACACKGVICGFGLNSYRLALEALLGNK
Description: btDHQD inhibition, primary screen DHQD assay.

In assay [5] the target is T2, cdDHQD. Nature of the assay: biochemical. Particulars: Kd for binding to cdDHQD (WaterLOGSY), NMR titration; PBS pH 7.2, 25°C.
The target in assay [6] is T3, seDHQD. Nature of the assay: WaterLOGSY NMR titration with seDHQD. Particulars: Kd for binding to seDHQD (WaterLOGSY), PBS pH 7.2, 25°C.
Where [7] appears, read: type II DHQD, read-out: IC50 vcDHQD.
[8] abbreviates: Kd for binding to cdDHQD (line broadening, double reciprocal plot), NMR, PBS pH 7.2, 25°C.
[9] abbreviates: Kd for binding to cdDHQD, fit of single resonances, NMR titration, two different resonances per compound (Figure 3A, 3B).
The mark [10] stands for this setting: 200 µM compound, substrate up to 5 mM.

Chain of ypDHQD (type II DHQD) (Q8ZAX1 whole entry, looked up): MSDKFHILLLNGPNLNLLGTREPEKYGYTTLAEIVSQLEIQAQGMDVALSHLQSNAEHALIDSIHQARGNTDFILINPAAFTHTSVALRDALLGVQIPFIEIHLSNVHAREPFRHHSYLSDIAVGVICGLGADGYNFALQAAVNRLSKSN
T3 sequence (P58687 whole entry): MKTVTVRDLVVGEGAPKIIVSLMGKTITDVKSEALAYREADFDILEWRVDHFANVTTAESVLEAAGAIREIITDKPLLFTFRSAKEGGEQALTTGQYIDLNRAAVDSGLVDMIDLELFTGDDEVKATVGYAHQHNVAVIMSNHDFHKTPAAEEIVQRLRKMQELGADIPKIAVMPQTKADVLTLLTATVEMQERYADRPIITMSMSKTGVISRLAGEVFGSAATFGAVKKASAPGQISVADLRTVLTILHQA
T2 sequence (Q186A6 whole entry): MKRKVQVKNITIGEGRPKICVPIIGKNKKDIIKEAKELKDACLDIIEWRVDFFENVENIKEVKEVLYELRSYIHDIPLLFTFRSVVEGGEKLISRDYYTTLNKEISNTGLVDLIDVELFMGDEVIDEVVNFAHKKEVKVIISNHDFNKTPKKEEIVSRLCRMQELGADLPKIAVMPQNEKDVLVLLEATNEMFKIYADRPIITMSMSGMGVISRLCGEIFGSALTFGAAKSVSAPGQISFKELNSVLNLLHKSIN

Regarding `O=S(=O)(Nc1nc(-c2ccccc2)cs1)c1cc(Cl)ccc1Cl` [Compound 1], the IC50 on vcDHQD (type II DHQD) (setting [7]), at ypDHQD (type II DHQD) and against btDHQD (type II DHQD) was greater than 200 µM each time. On cdDHQD [1], the Ki lay in the range of 11 to 15 µM. The “line broadening of compound resonances with seDHQD” value on seDHQD [2] was less than 1 Hz. Also, on cdDHQD [3], the “line broadening of compound resonances with cdDHQD” value is greater than 6 Hz. For the same compound, the dissociation constant Kd on cdDHQD [4] (setting [8]) is ~27 µM and ~25 µM; at cdDHQD [4] (setting [9]), 35 µM and 18 µM.
On to `O=C(O)c1ccccc1NC(=O)c1csc2c1CCCC2` [Compound 3], for which the IC50 at vcDHQD (type II DHQD) (setting [7]), on ypDHQD (type II DHQD) and on btDHQD (type II DHQD) was greater than 200 µM throughout. At cdDHQD [1], this compound yielded a Ki of 19 to 22 µM. The “Vmax in presence of inhibitor” value on cdDHQD [1] (setting [10]) is given as “unchanged”. Moreover, on cdDHQD [1] (setting [10]), the “increase of apparent Km” value is reported as 10 fold. Also, at cdDHQD [1] (from Km/Vmax at high substrate), the mechanism of inhibition entry is on record as “competitive”. Moreover, the Kd was ~65 µM and 67 µM on cdDHQD [5]; ~400 µM and ~390 µM at seDHQD [6].
For the compound `COc1ccc2nc(NS(=O)(=O)c3cc(Cl)ccc3Cl)sc2c1` [Compound 2], the IC50 against vcDHQD (type II DHQD), at ypDHQD (type II DHQD) and against btDHQD (type II DHQD) was greater than 200 µM throughout. For the same compound, the “line broadening of compound resonances with seDHQD” value at seDHQD [2] was less than 1 Hz. The “line broadening of compound resonances with cdDHQD” value at cdDHQD [3] was greater than 6 Hz. Further, the Kd on cdDHQD [4] (setting [8]) was roughly 25 µM; at cdDHQD [4] (setting [9]), 15 µM and 34 µM.
